Patent publication US12252524B2, “GIP/GLP1 co-agonist compounds” (Eli Lilly and Company, priority 2018, dated 2025)
Numbered stars: 1 amine (or outer) side, 2 acyl side, 3 side chain; on linkers, the order of the positions; unused ones are H or OH. Square brackets hold non-standard residues; d marks the D form. Side chains are listed from the residue outwards. Peptide text beside a SMILES is read from it. * marks the point of attachment. C20 diacid = O=C(O)CCCCCCCCCCCCCCCCCCC(=O)*; αMePhe(2-F) = C[C@](N)(Cc1ccccc1F)C(=O)O; γGlu = O=C(O)[C@H](CCC(=O)[*:2])N[*:1]; αMeF = C[C@](N)(Cc1ccccc1)C(=O)O; αMeL = CC(C)C[C@](C)(N)C(=O)O; AEEA = NCCOCCOCC(=O)O; Aib = CC(C)(N)C(=O)O

Key:
[1] = target: T1, human Gcg receptor (Homo sapiens, UniProt P47871); assay: [125I]-Glucagon binding (SPA), human Gcg receptor; details: read-out: hGLcgR Ki, nM (SEM, n)
T1 construct: expressed in transfected cells; crude membranes
Procedure, shortened: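 Crude membranes from cells expressing the receptor, prepared by hypotonic lysis in 50 mM Tris HCl pH 7.5 with protease inhibitors, homogenization and differential centrifugation, were used in a WGA-bead SPA. Binding buffer: 25 mM HEPES pH 7.4, 2.5 mM CaCl2, 1 mM MgCl2, bacitracin, Tween-20.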

[2] = target: T2, human GIP receptor (Homo sapiens, UniProt P48546); assay: [125I]-GIP binding (SPA), human GIP receptor; details: read-out: hGIPR Ki, nM (SEM, n)
T2 construct: expressed in transfected cells; crude membranes
T2 sequence (P48546 22-466): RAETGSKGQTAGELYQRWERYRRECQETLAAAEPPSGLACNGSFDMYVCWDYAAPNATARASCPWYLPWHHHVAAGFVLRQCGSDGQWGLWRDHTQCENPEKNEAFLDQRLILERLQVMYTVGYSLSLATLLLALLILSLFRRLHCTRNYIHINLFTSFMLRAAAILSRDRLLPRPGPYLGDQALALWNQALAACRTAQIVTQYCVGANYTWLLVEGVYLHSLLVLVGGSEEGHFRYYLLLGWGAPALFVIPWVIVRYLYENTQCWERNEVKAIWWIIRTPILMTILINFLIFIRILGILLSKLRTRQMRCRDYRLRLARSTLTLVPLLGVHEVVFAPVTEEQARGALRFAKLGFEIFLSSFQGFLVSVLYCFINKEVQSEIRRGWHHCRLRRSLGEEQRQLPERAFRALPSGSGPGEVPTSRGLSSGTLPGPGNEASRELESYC

[3] = target: human GLP-1 receptor (GLP-1R) (Homo sapiens, UniProt P43220); assay: cAMP pharmacological functional assay in presence of casein, hGLP-1R; type: cell-based; details: HEK293 cells expressing hGLP-1R, 0.1% Casein, geometric mean; read-out: hGLP1R cAMP Rel EC50 nM (SEM, n)
[4] = target: T3, gastric inhibitory peptide receptor (GIPR) (Homo sapiens, UniProt P48546); assay: cAMP pharmacological functional assay in presence of casein, hGIPR; type: cell-based; details: HEK293 cells expressing hGIPR, 0.1% Casein, geometric mean; read-out: hGIPR cAMP Rel EC50 nM (SEM, n)
T3 sequence (P48546 22-466): T2 sequence (P48546 22-466)

[5] = target: human GLP-1R (Homo sapiens, UniProt P43220); assay: [125I]-GLP-1 binding (SPA), human GLP-1 receptor; parameters: expressed in transfected cells; crude membranes; details: read-out: hGLP1R Ki, (nM) (SEM, n)
Procedure, shortened: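 Ki values are geometric means with SEM over independent replicates on different days, derived from IC50s fitted by four-parameter nonlinear regression. The assay used crude cell membranes in HEPES buffer, pH 7.4, containing CaCl2, MgCl2, bacitracin and TWEEN-20.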

human GLP-1R, sequence (P43220 24-463): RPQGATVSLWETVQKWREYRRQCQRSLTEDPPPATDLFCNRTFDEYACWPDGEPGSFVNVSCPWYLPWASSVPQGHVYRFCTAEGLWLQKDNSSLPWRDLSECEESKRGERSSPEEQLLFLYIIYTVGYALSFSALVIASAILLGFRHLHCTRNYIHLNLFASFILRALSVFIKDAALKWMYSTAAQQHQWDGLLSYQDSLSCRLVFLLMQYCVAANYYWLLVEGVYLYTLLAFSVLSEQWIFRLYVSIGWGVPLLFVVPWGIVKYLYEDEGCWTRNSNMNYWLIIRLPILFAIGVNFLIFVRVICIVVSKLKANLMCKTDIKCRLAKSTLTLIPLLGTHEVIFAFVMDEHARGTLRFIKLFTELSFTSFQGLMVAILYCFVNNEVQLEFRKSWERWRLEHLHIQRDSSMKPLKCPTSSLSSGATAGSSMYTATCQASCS
human GLP-1 receptor (GLP-1R), sequence (P43220 24-463): as above
T1 sequence (P47871 26-477): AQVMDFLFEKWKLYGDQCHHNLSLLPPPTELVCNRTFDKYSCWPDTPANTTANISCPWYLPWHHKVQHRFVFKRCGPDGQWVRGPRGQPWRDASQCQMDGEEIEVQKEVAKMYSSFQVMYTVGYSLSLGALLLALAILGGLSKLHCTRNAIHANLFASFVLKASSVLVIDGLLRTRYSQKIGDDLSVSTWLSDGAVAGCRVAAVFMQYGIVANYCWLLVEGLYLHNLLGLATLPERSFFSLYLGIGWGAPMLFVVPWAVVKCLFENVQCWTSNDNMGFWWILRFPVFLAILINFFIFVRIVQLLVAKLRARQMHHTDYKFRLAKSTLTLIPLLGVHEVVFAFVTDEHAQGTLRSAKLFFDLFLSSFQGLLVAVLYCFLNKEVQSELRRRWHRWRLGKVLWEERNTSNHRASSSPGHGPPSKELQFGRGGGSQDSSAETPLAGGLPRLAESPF

Row | Compound | Ki [1] | Ki [2] | EC50 [3] | EC50 [4] | Ki [5]
1 | CC[C@H](C)[C@H](NC(=O)[C@H](CC(C)C)NC(=O)[C@H](Cc1ccc(O)cc1)NC(=O)[C@@H](CCC(=O)O)NC(=O)[C@@H](NC(=O)[C@H](Cc1ccccc1)NC(=O)[C@H](CCC(=O)O)NC(=O)C(C)(C)NC(=O)[C@H](CCC(N)=O)NC(=O)[C@H](C)NC(=O)[C@H](CCCCNC(=O)COCCOCCNC(=O)COCCOCCNC(=O)CC[C@H](NC(=O)CCCCCCCCCCCCCCCCCCC(=O)O)C(=O)O)NC(=O)[C@H](CCC(=O)O)NC(=O)[C@H](CC(=O)O)NC(=O)[C@H](CC(C)C)NC(=O)[C@](C)(CC(C)C)NC(=O)[C@@H](NC(=O)[C@H](CO)NC(=O)[C@H](Cc1ccc(O)cc1)NC(=O)[C@H](CC(=O)O)NC(=O)[C@H](CO)NC(=O)[C@@H](NC(=O)[C@](C)(Cc1ccccc1)NC(=O)[C@@H](NC(=O)CNC(=O)[C@H](CCC(=O)O)NC(=O)C(C)(C)NC(=O)[C@@H](N)Cc1ccc(O)cc1)[C@@H](C)O)[C@@H](C)O)[C@@H](C)CC)[C@@H](C)CC)C(=O)N[C@@H](CCC(=O)O)C(=O)NCC(=O)NCC(=O)N1CCC[C@H]1C(=O)N[C@@H](CO)C(=O)N[C@@H](CO)C(=O)NCC(=O)N[C@@H](C)C(=O)N1CCC[C@H]1C(=O)N1CCC[C@H]1C(=O)N1CCC[C@H]1C(=O)N[C@@H](CO)C(N)=O [Example 227] (H-Y[Aib]EGT[αMeF]TSDYSI[αMeL]LDEK([AEEA-AEEA-γGlu-C20 diacid])AQ[Aib]EFI[dE]YLIEGGPSSGAPPPS-NH2) | 113 nM | 0.0146 nM | 0.0329 nM | 0.0414 nM | 2.01 nM
2 | CC[C@H](C)[C@H](NC(=O)[C@H](CC(C)C)NC(=O)[C@H](Cc1ccc(O)cc1)NC(=O)[C@@H](CCC(=O)O)NC(=O)[C@@H](NC(=O)[C@H](Cc1ccccc1)NC(=O)[C@H](CCC(=O)O)NC(=O)C(C)(C)NC(=O)[C@H](CCC(N)=O)NC(=O)[C@H](C)NC(=O)[C@H](CCCCNC(=O)COCCOCCNC(=O)COCCOCCNC(=O)CC[C@H](NC(=O)CCCCCCCCCCCCCCCCCCC(=O)O)C(=O)O)NC(=O)[C@H](CCCCN)NC(=O)[C@H](CC(=O)O)NC(=O)[C@H](CC(C)C)NC(=O)[C@](C)(CC(C)C)NC(=O)[C@@H](NC(=O)[C@H](CO)NC(=O)[C@H](Cc1ccc(O)cc1)NC(=O)[C@H](CC(=O)O)NC(=O)[C@H](CO)NC(=O)[C@@H](NC(=O)[C@](C)(Cc1ccccc1)NC(=O)[C@@H](NC(=O)CNC(=O)[C@H](CCC(=O)O)NC(=O)C(C)(C)NC(=O)[C@@H](N)Cc1ccc(O)cc1)[C@@H](C)O)[C@@H](C)O)[C@@H](C)CC)[C@@H](C)CC)C(=O)N[C@@H](CCC(=O)O)C(=O)NCC(=O)NCC(=O)N1CCC[C@H]1C(=O)N[C@@H](CO)C(=O)N[C@@H](CO)C(=O)NCC(N)=O [Example 228] (H-Y[Aib]EGT[αMeF]TSDYSI[αMeL]LDKK([AEEA-AEEA-γGlu-C20 diacid])AQ[Aib]EFI[dE]YLIEGGPSSG-NH2) | 182 nM | 0.028 nM | 0.0282 nM | 0.0503 nM | 2.43 nM
3 | CC[C@H](C)[C@H](NC(=O)[C@H](CC(C)C)NC(=O)[C@H](Cc1ccc(O)cc1)NC(=O)[C@@H](CCC(=O)O)NC(=O)[C@@H](NC(=O)[C@H](Cc1ccccc1)NC(=O)[C@H](CCC(=O)O)NC(=O)C(C)(C)NC(=O)[C@H](CCC(N)=O)NC(=O)[C@H](C)NC(=O)[C@H](CCCCNC(=O)COCCOCCNC(=O)COCCOCCNC(=O)CC[C@H](NC(=O)CCCCCCCCCCCCCCCCCCC(=O)O)C(=O)O)NC(=O)[C@H](CCC(=O)O)NC(=O)[C@H](CC(=O)O)NC(=O)[C@H](CC(C)C)NC(=O)[C@](C)(CC(C)C)NC(=O)[C@H](CO)NC(=O)[C@H](Cc1ccc(O)cc1)NC(=O)[C@H](CC(=O)O)NC(=O)[C@H](CO)NC(=O)[C@@H](NC(=O)[C@](C)(Cc1ccccc1F)NC(=O)[C@@H](NC(=O)CNC(=O)[C@H](CCC(=O)O)NC(=O)C(C)(C)NC(=O)[C@@H](N)Cc1ccc(O)cc1)[C@@H](C)O)[C@@H](C)O)[C@@H](C)CC)C(=O)N[C@@H](CCC(=O)O)C(=O)NCC(=O)NCC(=O)N1CCC[C@H]1C(=O)N[C@@H](CO)C(=O)N[C@@H](CO)C(=O)NCC(=O)N[C@@H](C)C(=O)N1CCC[C@H]1C(=O)N1CCC[C@H]1C(=O)N1CCC[C@H]1C(=O)N[C@@H](CO)C(N)=O [Example 229] (H-Y[Aib]EGT[αMePhe(2-F)]TSDYS[αMeL]LDEK([AEEA-AEEA-γGlu-C20 diacid])AQ[Aib]EFI[dE]YLIEGGPSSGAPPPS-NH2) | > 1100 nM | 2.47 nM | 2.11 nM | 4.79 nM | 36.2 nM
4 | CC[C@H](C)[C@H](NC(=O)[C@H](CC(C)C)NC(=O)[C@H](Cc1ccc(O)cc1)NC(=O)[C@@H](CCC(=O)O)NC(=O)[C@@H](NC(=O)[C@H](Cc1ccccc1)NC(=O)[C@H](CCC(=O)O)NC(=O)C(C)(C)NC(=O)[C@H](CCC(N)=O)NC(=O)[C@H](C)NC(=O)[C@H](CCCCNC(=O)COCCOCCNC(=O)COCCOCCNC(=O)CC[C@H](NC(=O)CCCCCCCCCCCCCCCCCCC(=O)O)C(=O)O)NC(=O)[C@H](Cc1c[nH]cn1)NC(=O)[C@H](CC(=O)O)NC(=O)[C@H](CC(C)C)NC(=O)[C@](C)(CC(C)C)NC(=O)[C@@H](NC(=O)[C@H](CO)NC(=O)[C@H](Cc1ccc(O)cc1)NC(=O)[C@H](CC(=O)O)NC(=O)[C@H](CO)NC(=O)[C@@H](NC(=O)[C@](C)(Cc1ccccc1F)NC(=O)[C@@H](NC(=O)CNC(=O)[C@H](CCC(=O)O)NC(=O)C(C)(C)NC(=O)[C@@H](N)Cc1ccc(O)cc1)[C@@H](C)O)[C@@H](C)O)[C@@H](C)CC)[C@@H](C)CC)C(=O)N[C@@H](CCC(=O)O)C(=O)NCC(=O)NCC(=O)N1CCC[C@H]1C(=O)N[C@@H](CO)C(=O)N[C@@H](CO)C(=O)NCC(=O)N[C@@H](C)C(=O)N1CCC[C@H]1C(=O)N1CCC[C@H]1C(=O)N1CCC[C@H]1C(=O)N[C@@H](CO)C(N)=O [Example 230] (H-Y[Aib]EGT[αMePhe(2-F)]TSDYSI[αMeL]LDHK([AEEA-AEEA-γGlu-C20 diacid])AQ[Aib]EFI[dE]YLIEGGPSSGAPPPS-NH2) | 494 nM | 0.042 nM | 0.0491 nM | 0.0431 nM | 4.68 nM
5 | CC[C@H](C)[C@H](NC(=O)[C@H](CC(C)C)NC(=O)[C@H](Cc1ccc(O)cc1)NC(=O)[C@@H](CCC(=O)O)NC(=O)[C@@H](NC(=O)[C@H](Cc1ccccc1)NC(=O)[C@H](CCC(=O)O)NC(=O)C(C)(C)NC(=O)[C@H](CCC(N)=O)NC(=O)[C@H](C)NC(=O)[C@H](CCCCNC(=O)COCCOCCNC(=O)COCCOCCNC(=O)CC[C@H](NC(=O)CCCCCCCCCCCCCCCCC(=O)O)C(=O)O)NC(=O)[C@H](CCCCN)NC(=O)[C@H](CC(=O)O)NC(=O)[C@H](CC(C)C)NC(=O)C(C)(CC(C)C)NC(=O)[C@@H](NC(=O)[C@H](CO)NC(=O)[C@H](Cc1ccc(O)cc1)NC(=O)[C@H](CC(=O)O)NC(=O)[C@H](CO)NC(=O)[C@@H](NC(=O)C(C)(Cc1ccccc1F)NC(=O)[C@@H](NC(=O)CNC(=O)[C@H](CCC(=O)O)NC(=O)C(C)(C)NC(=O)[C@@H](N)Cc1ccc(O)cc1)[C@@H](C)O)[C@@H](C)O)[C@@H](C)CC)[C@@H](C)CC)C(=O)N[C@@H](CCC(=O)O)C(=O)NCC(=O)NCC(=O)N1CCC[C@H]1C(=O)N[C@@H](CO)C(=O)N[C@@H](CO)C(=O)NCC(=O)N[C@@H](C)C(=O)N1CCC[C@H]1C(=O)N1CCC[C@H]1C(=O)N1CCC[C@H]1C(=O)N[C@@H](CO)C(N)=O (stereo partly shown) [Example 231] | 440 nM | 0.0394 nM | 0.0611 nM | 0.0253 nM | 3.03 nM
